Data set [1] deals with SD rats and mice. In words: Acute toxicity test, general symptoms. Type of data set: in vivo. The text has this: With (a) the 3-oxygermylpropionic acid according to this invention (hereinafter called SK-818) and (b) the composition of Preparation Ex. 1, SD rats and mice were subjected to acute and subacute (chronic) toxicity tests in conventional manner. (Groups of animals, 8-10 per group, were used for experimentation).
Between (a) SK-818 and (b) the composition of Preparation Ex. 1 there was no significant difference in acute toxicity.

Data set [2] concerns MRL/1 masculine mice. Briefly: Prevention of spontaneous nephritis of MRL/1 mice. Type of data set: in vivo. Details: Blood-urinary nitrogen levels, BUN: unit not given here. The following applies: for Blood-urinary nitrogen levels, BUN: day following the final administration. The procedure:
The action of SK-818 on preventing the development of spontaneous nephritis of MRL/1 mice (or an impairment of the functioning of the kidney asaociated with aging) was examined.
Given amounts (0.1 mg/kg, 1.0 mg/kg and 10.0 mg/kg a day) of SK-818, in the form of a mixture of the composition of Preparation Ex. 1 with feed, were administered orally MRL/1 masculine mice of six-week age (16 for each group) twice a week over 12 weeks. In the meantime, urinary protein was measured once a week; urinary protein levels exceeding 100 mg/dl were taken as positive. Examination was then made of how many animals became positive at the respective week-ages. Moreover, blood-urinary nitrogen levels were determined on the day following the final administration to make serological/physiological and pathological estimations of the action of SK-818 on nephritis.
The urinary protein and blood-urinary nitrogen levels were measured with Protein Pre-test (made by Wako Junyaku K.K.) and Urinary Nitrogen B-Test according to the urease/indophenol method (made by Wako Junyaku K.K.), respectively.

In data set [3] the test system is rat's hepatocytes. Briefly: Inhibition of GPT elution from cultivated liver cells treated with hepatocyte-damaging substances. Type of data set: cell-based. The text has this: The effect on relieving the culture damage induced by adding hepatocyte-damaging substances and SK-818 to hepatocyte culture systems was examined by measuring the activity of glutamic-pyruvic transaminase (GPT) eluates obtained by cellular disorders. How much the elution of GPT was inhibited was used as an index to the hepatoxicity-relieving effect.
The following four substances were used as the hepatocyte-damaging (hepatoxic) substances. • (a) Galactosamine - "J. Natur. Prod.", 46, 841, 1983. • (b) Calcium ionophore - "Pharmacognosy", 39, 218, 1985. • (c) Cumene hydroperoxide - "Planta Med.", 51, 50, 1985. • (d) 1-Naphthylisothiocyanate.
The extraction and culture of a single layer of rat's hepatocytes were carried out by the procedures described by Nakamura et al in "Protein, Nucleic Acid and Oxygen", Extra Number No. 24, pp. 55-74, 1981.
Single layers of rats' hepatocytes were cultured for certain periods of time:- 0 hour for a galactosamine group, 20.5 hours for calcium ionophore and cumene hydroperoxide groups, and 14.5 hours for a 1-naph isocyanate group. Afterwards, the hepatocyte-damaging substances were added to the culture media at the respective desired concentrations:- 0.35 mM for (a); 10 »m for (b), 0.5 mM for (c) and 188 »m for (d)), which were then cultured for the respective given periods of time:- 38 hours for the group (a), 1 hour for (b), 1 hour for (c) and 12 hours for (d).
SK-818 was dissolved in bovine embryo serum, and the serum solution was then added to each medium at the respective stages of culture by the following three methods; • (a) it was added to the pre-culture medium prior to the addition of the hepatocyte-damaging substance (called the pre-addition); • (b) it was added to the culture medium simultaneously with the addition of the hepatocyte-damaging substance (called the simultaneous addition); and • (c) it was added to the pre-culture and culture media (called the total addition).
The activity of the GPT eluates produced by cytotoxicity in the media was measured by a GPT measuring kit. Then, GPT reductions in % were found by the following equation: [formula] wherein A is the activity in Karmen units of GPT in a culture medium to which no hepatocyte-damaging substance is added, B is the activity in Karmen units of GPT in a culture medium to which the hepatocyte-damaging substance is added; and C is the activity in Karmen units of GPT in a culture medium to which the hepatocyte-damaging substance is added together with 3-oxygermylpropionic acid.

From patent EP0435693B1, “Pharmaceutical compositions containing 3-oxygermylpropionic acid polymers for inhibiting the degeneration of cells” (SANWA KAGAKU KENKYUSHO CO., LTD., priority 1989, dated 1991) come the findings set out here.

As to 3-oxygermylpropionic acid [SK-818], in data set [1], the general symptoms entry is “general symptoms of tranquilization, diarrhoea, vomiting and typhlectasis”. The “Number of animals with positive urinary protein levels” value is reported as 4/15 in data set [2] (0.1 mg/kg, 16 week-age, positive = exceeding 100 mg/dl); 7/15 in data set [2] (0.1 mg/kg, 17 week-age); 10/15 in data set [2] (0.1 mg/kg, 18 week-age); 4/15 in data set [2] (1 mg/kg, 16 week-age); 6/15 in data set [2] (1 mg/kg, 17 week-age); 8/15 in data set [2] (1 mg/kg, 18 week-age). Moreover, the “Number of animals with positive urinary protein levels” value in data set [2] (10 mg/kg, 16 week-age) is listed as 2/15; in data set [2] (10 mg/kg, 17 week-age) it was 4/15; in data set [2] (10 mg/kg, 18 week-age), 8/15. The entries for the “Blood-urinary nitrogen levels, BUN” value in data set [2] (0.1 mg/kg), in data set [2] (1 mg/kg) and in data set [2] (10 mg/kg) were 32.2±1.6, 35.5±3.3 and 29.3±1.7, respectively. Further, the “increase in the blood-urinary nitrogen levels” value in data set [2] (At 10 mg/kg) is listed as “significantly inhibited”. The “increase in the urinary protein levels” value in data set [2] (At 10 mg/kg) is recorded as “remarkably inhibited”. Moreover, the “glomeruli that become more morbid” value in data set [2] (groups medicated with SK-818, control group 57 %) is reported as 23-34%. Besides, the GPT reductions in data set [3] (1-naphthylisothiocynate 188 »m, simultaneous addition) came out at 79%; in data set [3] (1-naphthylisothiocynate 188 »m, total addition), 67%; in data set [3] (calcium ionophore 10 »m, simultaneous addition), 27%; in data set [3] (calcium ionophore 10 »m, total addition) it was 36%; in data set [3] (cumene hydroperoxide 0.5 mM, simultaneous addition), 63%; in data set [3] (cumene hydroperoxide 0.5 mM, total addition) it was 42%. For the same substance, the GPT reductions in data set [3] (galactosamine 0.35 mM, simultaneous addition) came out at 29%. For the same substance, in data set [3] (only pre-addition, before the hepatocyte-damaging substance), the GPT reduction entry is recorded as “No GPT reduction”.
